Reference: BigSolDB 2.1

Brc1sc(Br)c(Br)c1Br
solubility (mole fraction) (in THF, 278.15 K): 0.0397 | solubility (mole fraction) (in THF, 282.15 K): 0.043 | solubility (mole fraction) (in THF, 286.15 K): 0.0463 | solubility (mole fraction) (in THF, 290.15 K): 0.05 | solubility (mole fraction) (in THF, 294.15 K): 0.0539 | solubility (mole fraction) (in THF, 298.15 K): 0.0581 | solubility (mole fraction) (in THF, 302.15 K): 0.0627 | solubility (mole fraction) (in THF, 306.15 K): 0.0671 | solubility (mole fraction) (in THF, 310.15 K): 0.0719 | solubility (mole fraction) (in THF, 314.15 K): 0.0766 | solubility (mole fraction) (in THF, 318.15 K): 0.082 | solubility (mole fraction) (in THF, 322.15 K): 0.0869 | solubility (mole fraction) (in ethanol, 278.15 K): 0.00126 | solubility (mole fraction) (in ethanol, 282.15 K): 0.00134 | solubility (mole fraction) (in ethanol, 286.15 K): 0.00151 | solubility (mole fraction) (in ethanol, 290.15 K): 0.00181 | solubility (mole fraction) (in ethanol, 294.15 K): 0.00206 | solubility (mole fraction) (in ethanol, 298.15 K): 0.00241 | solubility (mole fraction) (in ethanol, 302.15 K): 0.00268 | solubility (mole fraction) (in ethanol, 306.15 K): 0.00305 | solubility (mole fraction) (in ethanol, 310.15 K): 0.00353 | solubility (mole fraction) (in ethanol, 314.15 K): 0.00389 | solubility (mole fraction) (in ethanol, 318.15 K): 0.00442 | solubility (mole fraction) (in ethanol, 322.15 K): 0.00501
